Test results reported in paper PMC9010685, “Sensor dimer disruption as a new mode of action to block the IRE1-mediated unfolded protein response” (Computational and Structural Biotechnology Journal, 2022).
Like-named read-outs stand apart in the source and are kept apart here.

Biological target: T1, IRE1 (IRE1α, Inositol requiring enzyme 1α) (Homo sapiens, UniProt O75460)
T1 construct: gene ERN1; recombinant IRE1 (aa 465–977, His & GST Tag); cytosolic domain
Experiment: in vitro fluorescence RNase assay, cleavage of XBP1 mini-probe (Cy5)
Assay type: biochemical

T1 sequence (O75460 465-977): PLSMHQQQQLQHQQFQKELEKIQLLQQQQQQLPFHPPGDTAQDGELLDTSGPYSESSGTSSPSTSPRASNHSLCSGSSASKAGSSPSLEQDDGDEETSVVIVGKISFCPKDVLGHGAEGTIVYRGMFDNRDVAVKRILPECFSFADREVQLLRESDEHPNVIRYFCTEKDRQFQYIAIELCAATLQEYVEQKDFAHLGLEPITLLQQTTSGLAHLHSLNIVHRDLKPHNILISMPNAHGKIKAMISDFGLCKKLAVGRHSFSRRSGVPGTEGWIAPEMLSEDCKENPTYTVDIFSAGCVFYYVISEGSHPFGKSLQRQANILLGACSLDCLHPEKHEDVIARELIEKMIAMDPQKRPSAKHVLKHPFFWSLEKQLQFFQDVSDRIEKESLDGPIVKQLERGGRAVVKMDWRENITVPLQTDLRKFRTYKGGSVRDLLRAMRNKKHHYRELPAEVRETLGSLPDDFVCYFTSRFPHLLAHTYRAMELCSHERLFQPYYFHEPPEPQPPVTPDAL

| IC50 (read-out: IC50) | Structure (SMILES) | IC50 |
| --- | --- | --- |
|  | C[C@@H]1O[C@@H](OC[C@H]2O[C@@H](Oc3c(-c4ccc(O)c(O)c4)oc4cc(O)cc(O)c4c3=O)[C@H](O)[C@@H](O)[C@@H]2O)[C@H](O)[C@H](O)[C@H]1O [rutin] | 530 ± 300 nM |
|  | C[C@@H]1O[C@@H](Oc2c(-c3ccc(O)c(O)c3)oc3cc(O)cc(O)c3c2=O)[C@H](O)[C@H](O)[C@H]1O [Qi, quercitrin] | 230 ± 100 nM |
| 330 ± 300 nM | NC[C@@H]1O[C@H](O[C@H]2[C@@H](O)[C@H](O[C@@H]3[C@@H](O)[C@H](N)C[C@H](N)[C@H]3O[C@H]3O[C@H](CN)[C@@H](O)[C@H](O)[C@H]3N)O[C@@H]2CO)[C@H](N)[C@@H](O)[C@@H]1O [neomycin] |  |
|  | Nc1nc2[nH]cc(CCc3ccc(C(=O)N[C@@H](CCC(=O)O)C(=O)O)cc3)c2c(=O)[nH]1 [PMT, pemetrexed] | 260 ± 200 nM |
